Counter-ions that a name gives are not always drawn. Like-named read-outs stand apart in the source and are kept apart here. Values belong to the compound of their own block, whether it stands above or below them.
Key:
[1] = target: T1, carnitine palmitoyl transferase in liver mitochondria (Rattus norvegicus, UniProt P32198); assay: Inhibition of carnitine palmitoyl transferase activity in liver mitochondria; format: biochemical; settings: for inhibition at 0.05 µM / inhibition at 0.1 µM / inhibition at 0.5 µM / inhibition at 1 µM / inhibition at 2 µM / inhibition at 5 µM / inhibition at 10 µM / inhibition at 50 µM: read-out: % Inhibition ± SEM, liver; for inhibition at 0.1 µM: 0.10 μM; for inhibition at 0.5 µM: 0.50 μM
T1 construct: from tissue; host or cells: rat liver mitochondria
T1 sequence (P32198 1-773): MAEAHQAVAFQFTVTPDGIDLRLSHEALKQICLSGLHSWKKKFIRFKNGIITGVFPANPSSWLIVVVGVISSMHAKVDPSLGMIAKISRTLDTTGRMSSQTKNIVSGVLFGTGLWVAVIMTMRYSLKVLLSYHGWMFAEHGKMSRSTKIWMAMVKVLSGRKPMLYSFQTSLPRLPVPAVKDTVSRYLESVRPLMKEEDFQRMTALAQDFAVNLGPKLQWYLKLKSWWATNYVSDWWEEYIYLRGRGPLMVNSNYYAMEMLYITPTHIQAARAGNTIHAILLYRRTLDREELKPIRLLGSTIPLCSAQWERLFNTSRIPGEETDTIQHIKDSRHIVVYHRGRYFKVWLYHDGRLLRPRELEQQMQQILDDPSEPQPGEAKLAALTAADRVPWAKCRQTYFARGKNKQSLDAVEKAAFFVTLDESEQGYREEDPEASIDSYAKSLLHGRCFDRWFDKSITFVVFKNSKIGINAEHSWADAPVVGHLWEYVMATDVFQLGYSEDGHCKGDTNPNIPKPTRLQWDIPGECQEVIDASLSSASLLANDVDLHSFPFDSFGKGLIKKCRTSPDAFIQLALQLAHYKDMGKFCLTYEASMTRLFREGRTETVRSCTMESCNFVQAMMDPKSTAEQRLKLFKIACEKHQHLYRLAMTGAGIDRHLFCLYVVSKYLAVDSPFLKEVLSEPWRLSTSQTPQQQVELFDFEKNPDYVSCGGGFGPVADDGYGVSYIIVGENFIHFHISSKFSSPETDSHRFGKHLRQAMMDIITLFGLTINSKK
Protocol: (§1) The following assay measures the ability of the compounds of the invention to inhibit the activity of carnitine palmitoyl transferase in liver and heart mitochondria.
(§2) According to this procedure, the following steps are carried out:
(§3) (1) Isolation of Mitochondria
(§4) (a) liver mitochondria: 5 g of liver from a 300 g rat is minced, homogenized with 40 ml (30 ml for heart mitochondria) of 0.25M sucrose, 10 mM Tris and 1 mM EDTA, pH 7.4 and centrifuged at 600 xg for 15 minutes. The decanted supernatant is centrifuged at 7,900 xg for 15 minutes. The resultant pellet is resuspended in 20 ml total (16 ml total for the heart mitochondria) of sucrose buffer and centrifuged 7,900 xg for 15 minutes. The pellet is then resuspended in 30 ml total (11 ml for heart mitochondria) of 0.15M KCl, 5 mM Tris.Cl, pH 7.4 and this is used as the enzyme source.
(§5) To 28 3 ml glass test tubes is added 350 μl of the following mixture:
(§6) 81 mg of FFA free albumin
(§7) 1.5 ml of 0.5 mM palmitoyl CoA
(§8) Then there are added to these test tubes 50 μl of water, 50 μl of 10 mM carnitine and 0.25 μCi^3 H-carnitine, and the tubes are placed in a 30° C. water bath.
(§9) (3) Mitochondrial Suspensions
(§10) Twelve plastic incubation tubes are prepared by adding the following to the tubes:
(§11) To each of the tubes, except 1 and 3, are added 30 μl of 200 mM ATP, 20 μl of 333 mM MgCl2 and 50 μl of 1.5 mg/ml CoA. 800 μl of mitochondria from step (1) above are added to each tube, and the tubes are incubated at room temperature for 20 minutes. The tubes are centrifuged at 7,900 xg for 3 minutes and the resultant pellet is resuspended in 1 ml chilled 150 mM KCl, 5 mM TRIS, pH 7.4.
(§12) 50 μl of mitochondrial suspension from step (3) above is added to the 28 tubes from step (2) as follows: (at 15 second intervals):
(§13) The tubes are incubated for 5 minutes at 30° C. and then there is added to each tube, at 15-second intervals, 50 μl of concentrated HCl, 1.45 ml water and 1 ml of n-butanol. The tubes are mixed, chilled in ice for 20 minutes and then centrifuged for 10 minutes at 2500 rpm to clarify the layers. Thereafter, 500 μl of the upper butanol layer of each tube is pipetted into 100 μl of water and 500 μl butanol saturated water, the tubes are mixed and chilled in ice for 20 minutes and centrifuged again for 10 minutes at 2500 rpm. 200 μl of the butanol layer of each tube is pipetted into a scintillation vial to which is added 10 ml of Aquasol, and the samples are counted in a Packard Tri-Carb Scintillation Counter.
(§14) The results are used to calculated the percentage of inhibition of carnitine palmitoyl transferase by the compounds tested.
When tested in the above assay using liver mitochondria alone, other compounds of the invention give the following results.

[2] = target: T2, carnitine palmitoyl transferase in heart mitochondria (Rattus norvegicus, UniProt Q63704); assay: Inhibition of carnitine palmitoyl transferase activity in heart mitochondria; format: biochemical; settings: for inhibition at 0.1 µM: 0.10 μM; for inhibition at 0.5 µM: 0.50 μM
T2 construct: to obtain a heart mitochondria fraction; from tissue; host or cells: rat heart mitochondria
T2 sequence (Q63704 1-772): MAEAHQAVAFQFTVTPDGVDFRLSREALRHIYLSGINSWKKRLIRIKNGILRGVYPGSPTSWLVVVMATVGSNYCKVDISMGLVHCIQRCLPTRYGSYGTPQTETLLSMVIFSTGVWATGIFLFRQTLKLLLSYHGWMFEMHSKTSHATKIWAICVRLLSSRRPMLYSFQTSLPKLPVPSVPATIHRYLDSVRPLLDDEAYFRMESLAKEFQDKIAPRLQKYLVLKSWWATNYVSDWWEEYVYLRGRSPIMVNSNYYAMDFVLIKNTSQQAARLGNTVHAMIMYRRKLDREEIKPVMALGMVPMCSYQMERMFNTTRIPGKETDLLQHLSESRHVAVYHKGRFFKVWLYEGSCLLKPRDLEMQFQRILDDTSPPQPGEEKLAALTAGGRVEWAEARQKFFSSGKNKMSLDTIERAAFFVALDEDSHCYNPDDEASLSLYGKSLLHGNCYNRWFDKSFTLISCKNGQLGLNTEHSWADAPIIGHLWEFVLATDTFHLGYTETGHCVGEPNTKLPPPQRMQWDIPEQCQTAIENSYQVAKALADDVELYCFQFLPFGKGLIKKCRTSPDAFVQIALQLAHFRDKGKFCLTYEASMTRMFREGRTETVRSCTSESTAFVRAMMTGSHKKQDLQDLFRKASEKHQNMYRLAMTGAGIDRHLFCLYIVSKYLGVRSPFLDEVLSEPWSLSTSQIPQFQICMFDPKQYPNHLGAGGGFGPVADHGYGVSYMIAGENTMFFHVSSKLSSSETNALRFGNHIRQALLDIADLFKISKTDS
Protocol: as §1, §2, §3, §4
(b) heart mitochondria: four rat hearts are processed as described in step (a) above to obtain a heart mitochondria fraction.
as §5, §6, §7, §8, §9, §10, §11, §12, §13, §14

[3] = Bachmann et al. 1984, Lee et al. 1982 and 1985; cited from earlier work
[4] = Table 2 (Example 10), liver mitochondria alone, read-out: % Inhibition of Hepatic CPTase, IC50
[5] = Table 1, liver mitochondria, ± SEM, read-out: IC50, liver
[6] = read-out: % Inhibition ± SEM, heart
[7] = 50.0 μM, read-out: % Inhibition ± SEM, heart
[8] = Example 9, second (untitled) table, liver mitochondria, read-out: Inhibition of Hepatic CPTase, IC50
[9] = at 50 μM, Example 9, second (untitled) table, read-out: % Maximal Inhibition of Cardiac CTPase at 50 μM

SMILES: COC(=O)C1(C(F)CCCCc2ccccc2)CO1 (single isomer, unassigned) [Example 1 (isomer A), 2-(1-Fluoro-5-phenylpentyl)-2-oxiranecarboxylic acid methyl ester]
IC50 [1, 4]: 1080 nM

SMILES: CCOC(=O)C1(CCCCCCOc2ccc(Cl)cc2)CO1 (stereo not drawn) [Compound A, 2-[6-(4-chlorophenoxy)hexyl]oxirane-2-carboxylic acid ethyl ester, reference compound]
inhibition at 0.05 µM [1]: 9 ± 7%
inhibition at 0.1 µM [1]: 11 ± 6%
inhibition at 0.5 µM [1]: 60 ± 7%
inhibition at 1 µM [1]: 79 ± 2%
inhibition at 2 µM [1]: 82 ± 2%
inhibition at 5 µM [1]: 86 ± 3%
inhibition at 10 µM [1]: 83 ± 3%
inhibition at 50 µM [1]: 85 ± 2%
IC50 [1, 8]: 310 nM
IC50 [1, 5]: 330 ± 40 nM
inhibition at 0.05 µM [2, 6]: 5 ± 6%
inhibition at 0.1 µM [2, 6]: 8 ± 7%
inhibition at 0.5 µM [2, 6]: 36 ± 10%
inhibition at 1 µM [2, 6]: 38 ± 15%
inhibition at 2 µM [2, 6]: 51 ± 15%
inhibition at 5 µM [2, 6]: 68 ± 11%
inhibition at 10 µM [2, 6]: 81 ± 1%
inhibition at 50 µM [2, 7]: 84 ± 1%
IC50 ([2]; Table 1, heart mitochondria, ± SEM): 250 nM
inhibition at 50 µM [2, 9]: 85 ± 2%

SMILES: O=C(O)C1(C(F)(F)CCCCCOc2ccc(Cl)cc2)CO1 (stereo not drawn) [Example 8, 2-[6-(4-Chlorophenoxy)-1,1-difluorohexyl]-2-oxiranecarboxylic acid sodium salt]
IC50 [1, 8]: 250 nM
inhibition at 50 µM [2, 9]: 24 ± 6%

SMILES: CCCCCCCCCCCCCCC1(C(=O)OC)CO1 (stereo not drawn) [methyl ester of 2-tetradecylglycidate]
cardiac effects from chronic administration, in words [3]: adverse cardiac effects

The next lines start with the values.

IC50 [1, 4]: 850 nM
SMILES: COC(=O)C1(C(F)CCCCCOc2ccc(Cl)cc2)CO1 (single isomer, unassigned) [3 (isomer A), 2-[6-(4-chlorophenoxy)-1-fluorohexyl]-2-oxiranecarboxylic acid methyl ester]

IC50 [1, 4]: 1750 nM
SMILES: COC(=O)C1(C(F)CCCCCOc2ccc(Cl)cc2)CO1 (single isomer, unassigned) [3 (isomer B), 2-[6-(4-Chlorophenoxy)-1-fluorohexyl]-2-oxiranecarboxylic acid methyl ester]

inhibition at 0.05 µM [1]: 5 ± 3%
inhibition at 0.1 µM [1]: 11 ± 5%
inhibition at 0.5 µM [1]: 23 ± 7%
inhibition at 1 µM [1]: 61 ± 9%
inhibition at 2 µM [1]: 78 ± 7%
inhibition at 5 µM [1]: 79 ± 8%
inhibition at 10 µM [1]: 80 ± 9%
inhibition at 50 µM [1]: 82 ± 10%
IC50 [1, 5]: 970 ± 180 nM
IC50 [1, 4]: 970 nM
inhibition at 0.05 µM [2, 6]: 6 ± 5%
inhibition at 0.1 µM [2, 6]: 17 ± 5%
inhibition at 0.5 µM [2, 6]: 18 ± 4%
inhibition at 1 µM [2, 6]: 34 ± 3%
inhibition at 2 µM [2, 6]: 35 ± 3%
inhibition at 5 µM [2, 6]: 40 ± 4%
inhibition at 10 µM [2, 6]: 50 ± 2%
inhibition at 50 µM [2, 7]: 52 ± 4%
SMILES: COC(=O)C1(C(F)CCCCOc2ccc(Cl)cc2)CO1 (single isomer, unassigned) [Example 2 (isomer A), 2-[5-(4-Chlorophenoxy)-1-fluoropentyl]-2-oxiranecarboxylic acid methyl ester]

IC50 [1, 4]: 500 nM
SMILES: O=C(O)C1(C(F)CCCCOc2ccc(Cl)cc2)CO1 (single isomer, unassigned) [Example 4, 2-[5-(4-Chlorophenoxy)-1-fluoropentyl]-2-oxiranecarboxylic acid sodium salt]

IC50 [1, 4]: 520 nM
SMILES: O=C(O)C1(C(F)CCCCCOc2ccc(Cl)cc2)CO1 (single isomer, unassigned) [Example 5, 2-[6-(4-Chlorophenoxy)-1-fluorohexyl]-2-oxiranecarboxylic acid sodium salt]

IC50 [1, 8]: 350 nM
inhibition at 50 µM [2, 9]: 26 ± 4%
SMILES: COC(=O)C1(C(F)(F)CCCCCOc2ccc(Cl)cc2)CO1 (stereo not drawn) [Example 7 (gem-difluoro compound), 2-[6-(4-Chlorophenoxy)-1,1-difluorohexyl]-2-oxiranecarboxylic acid methyl ester]

From patent US4788306A, “Fluorooxirane carboxylates as hypoglycemic agents” (American Home Products Corporation, priority 1987, dated 1988)
